Among the test systems are OVCAR-5 ovarian; MALME-3M melanoma; CAKI-1 renal; PC-3 prostate; HCT-15 colon; A498 renal; A549 NSCLC; RXF 393 renal; COLO 205 colon; 786-0 renal.
What all share (experiment): inhibition of tumour cell growth, NCI panel, 48 h

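Cultured in 96-well plates, cells were exposed to test compound for 48 hours across five concentrations. Abbreviation: GI50, concentration required for 50% inhibition of growth. At the TGI there is no net growth.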

Turning to `CCCN(Cc1ccc(F)cc1)c1ccc(CO)c(Cl)c1`, the GI50 in the assay with OVCAR-5 ovarian is 0.168 µM; with MALME-3M melanoma, 14.1 µM; with CAKI-1 renal, 1.47 µM; in the assay on PC-3 prostate, 11.6 µM; in the assay on HCT-15 colon, 5.35 µM; in the assay on A498 renal it was 0.0236 µM. Moreover, the GI50 in the assay with A549 NSCLC is 2.12 µM; in the assay with RXF 393 renal it was 4.12 µM; with COLO 205 colon, 3.96 µM; with 786-0 renal it was 4.77 µM. In addition, the TGI in the assay on OVCAR-5 ovarian worked out at 0.528 µM; in the assay with MALME-3M melanoma, 28.6 µM; with CAKI-1 renal, 13.6 µM; in the assay on PC-3 prostate it was 24.6 µM; with HCT-15 colon, 19.8 µM; with A498 renal it was 0.102 µM. The TGI in the assay on A549 NSCLC is 16.5 µM; with RXF 393 renal, 16.8 µM; in the assay with COLO 205 colon it was 13.6 µM; in the assay on 786-0 renal it was 19.7 µM.
For `CC1Oc2cc3c(-c4c(O)cc(O)c5c(O)c6c(cc45)OC(C)C(C)C6=O)c(O)cc(O)c3c(O)c2C(=O)C1C` (stereo unspecified), the TGI amounted to 6.32 µM in the assay on OVCAR-5 ovarian; 1.13 µM with MALME-3M melanoma; 2.36 µM in the assay on CAKI-1 renal; 0.698 µM in the assay on PC-3 prostate; 1.15 µM in the assay with HCT-15 colon; 0.784 µM in the assay on A498 renal. Also, the TGI amounted to 1.29 µM in the assay with A549 NSCLC, 0.207 µM with RXF 393 renal, 0.39 µM in the assay with COLO 205 colon and 1.21 µM with 786-0 renal.
For `CC[C@H](Nc1nc(N)nc(C)c1C#N)c1nc2cccc(CN(C)c3ncc(C(=O)NO)cn3)c2c(=O)n1-c1ccccc1`, the GI50 is 0.678 µM with OVCAR-5 ovarian; 0.129 µM in the assay with MALME-3M melanoma; 2.61 µM in the assay on CAKI-1 renal; 1.33 µM in the assay on PC-3 prostate; 2.11 µM in the assay with HCT-15 colon; 0.295 µM in the assay with A498 renal. For the same molecule, the values for the GI50 in the assay on A549 NSCLC, in the assay on RXF 393 renal and in the assay on 786-0 renal were 2.06 µM, 0.47 µM and 1.53 µM, respectively. Further, the TGI in the assay on OVCAR-5 ovarian is 3.05 µM; in the assay on MALME-3M melanoma, 2.47 µM; in the assay with CAKI-1 renal, 6.56 µM; in the assay on PC-3 prostate it was 8.14 µM; in the assay with HCT-15 colon, 12 µM; in the assay on A498 renal, 1.13 µM. The results for the TGI in the assay on A549 NSCLC, with RXF 393 renal and in the assay on 786-0 renal were 11.1 µM, 1.33 µM and 6.47 µM, respectively.
On to `O=C(O)[C@@H]1C2CC([C@@H]1C(=O)O)[C@H](N1C(=O)CCC1=O)[C@@H]2Br` (stereo partly specified), for which the TGI in the assay on OVCAR-5 ovarian, with MALME-3M melanoma, with PC-3 prostate, with HCT-15 colon, in the assay on A498 renal and in the assay on A549 NSCLC was more than 100 µM each time. For the same molecule, the TGI with RXF 393 renal, with COLO 205 colon and in the assay with 786-0 renal was more than 100 µM each time.
For `Nc1nc(/C=C\c2ccc([N+](=O)[O-])o2)nc(N2CCN(c3ccccc3)CC2)n1`, the GI50 is 31.5 µM with OVCAR-5 ovarian; 3.5 µM in the assay with CAKI-1 renal; 7.81 µM with PC-3 prostate; 2.77 µM in the assay on HCT-15 colon; 21.5 µM in the assay on A498 renal; 19.9 µM with A549 NSCLC. The figures for the GI50 in the assay with RXF 393 renal, in the assay with COLO 205 colon and with 786-0 renal were 2.94 µM, 2.88 µM and 5.5 µM, respectively. Moreover, the TGI with OVCAR-5 ovarian was 62.5 µM; with CAKI-1 renal, 10.8 µM; in the assay with PC-3 prostate, 60.6 µM; with HCT-15 colon, 11.9 µM; in the assay with A498 renal, 49.4 µM; with A549 NSCLC, 86.5 µM. Also, the values for the TGI with RXF 393 renal, in the assay with COLO 205 colon and in the assay with 786-0 renal were 41.5 µM, 21.9 µM and 25.8 µM, respectively.
Regarding `CN(C)CCCNC(=O)c1cc(NC(=O)CCNS(=O)(=O)c2ccc3c(c2)C(=O)c2ccccc2C3=O)cn1C`, the GI50 in the assay on OVCAR-5 ovarian, in the assay with CAKI-1 renal, in the assay with PC-3 prostate, in the assay on A498 renal, in the assay on A549 NSCLC and with RXF 393 renal was more than 100 µM in each case. Also, the GI50 with COLO 205 colon and in the assay with 786-0 renal was more than 100 µM each time. In addition, the TGI in the assay with OVCAR-5 ovarian, in the assay with CAKI-1 renal, in the assay with PC-3 prostate, in the assay on A498 renal, in the assay on A549 NSCLC and with RXF 393 renal was more than 100 µM in each case. The TGI in the assay with COLO 205 colon and with 786-0 renal was more than 100 µM each time.
For `CC1(C)CCC2(C(=O)OC3OC(CO)C(O)C(O)C3O)CC[C@]3(C)C(=CCC4C5(C)CC[C@H](OC6OC(C(=O)O)C(O)C(O)C6O)C(C)(C)C5CCC43C)C2C1` (stereo partly specified), the GI50 in the assay with OVCAR-5 ovarian was 3.07 µM; with CAKI-1 renal it was 17.2 µM; in the assay on PC-3 prostate it was 1.26 µM; in the assay on HCT-15 colon it was 6.73 µM; in the assay on A549 NSCLC, 1.83 µM; in the assay with RXF 393 renal, 1.65 µM. For the same molecule, the GI50 was 1.36 µM in the assay on COLO 205 colon and 1.56 µM in the assay on 786-0 renal. Besides, the TGI was 9.41 µM in the assay with OVCAR-5 ovarian; more than 50 µM with CAKI-1 renal; 3.47 µM in the assay with PC-3 prostate; 13.3 µM in the assay with HCT-15 colon; 20.2 µM in the assay with A549 NSCLC; more than 50 µM in the assay with RXF 393 renal. The figures for the TGI in the assay on COLO 205 colon and in the assay with 786-0 renal were 3.55 µM and 6.19 µM, respectively.
For `COc1cc2nc(Cl)nc(Nc3cccc(C(=O)/C=C/c4ccccc4)c3)c2cc1OC`, the GI50 was 8.79 µM in the assay with OVCAR-5 ovarian; 4.17 µM with CAKI-1 renal; 3.86 µM in the assay on PC-3 prostate; 2.88 µM in the assay on HCT-15 colon; more than 25 µM with A498 renal; more than 38.7 µM in the assay with A549 NSCLC. For the same molecule, the GI50 with RXF 393 renal is 2.02 µM; in the assay on COLO 205 colon, 11.4 µM; with 786-0 renal it was 3.05 µM. For the same molecule, the TGI in the assay on OVCAR-5 ovarian was more than 100 µM; in the assay with CAKI-1 renal, 35.4 µM; with PC-3 prostate it was 27.8 µM; with HCT-15 colon, more than 100 µM; with A498 renal, more than 66.5 µM; in the assay on A549 NSCLC, more than 100 µM. Moreover, the TGI was 5.46 µM in the assay on RXF 393 renal, more than 100 µM in the assay with COLO 205 colon and 15 µM with 786-0 renal.
In the case of `COc1cccc(OC(=O)c2ccccc2Nc2ccnc(C(F)(F)F)c2)c1`, the GI50 with OVCAR-5 ovarian was 3.53 µM; in the assay with CAKI-1 renal it was 2.68 µM; in the assay with PC-3 prostate, 3.25 µM; with HCT-15 colon, 2.81 µM; with A549 NSCLC, 3.18 µM; in the assay with RXF 393 renal, 20.7 µM. Moreover, the GI50 was 2.22 µM in the assay on COLO 205 colon and 3.43 µM with 786-0 renal. Also, the TGI was 35.6 µM in the assay on OVCAR-5 ovarian; 80.2 µM in the assay on CAKI-1 renal; more than 100 µM in the assay on PC-3 prostate; 12 µM in the assay on HCT-15 colon; 20.7 µM in the assay with A549 NSCLC; 59.6 µM in the assay on RXF 393 renal. Besides, the values for the TGI in the assay on COLO 205 colon and with 786-0 renal were 5.13 µM and 12.2 µM, respectively.

Values taken from PubChem BioAssay (NCI).
